The source of these data is ChEMBL document CHEMBL1142603, “Manzamine B and E and ircinal A related alkaloids from an Indonesian Acanthostrongylophora sponge and their activity against infectious, tropical parasitic, and Alzheimer's diseases” (J Nat Prod, 2006).

In general, inhibition refers to the change of the read-out against control, counted positive when it falls. What is called IC50 is the concentration at which inhibition is half-maximal. By IC90 is commonly meant the concentration at which the effect reaches the 90% level. For orientation: MIC means the lowest concentration found to suppress growth.

Values after ≈ are worked out from the molar mass of the structure shown. Active and inactive are the calls of the source. The calls are words filed in the database; no cut-off is given here.

Data set [1] can be described thus: Toxicity against medaka eggs assessed as eggs failing to hatch up to 10.6 uM after 11 days relative to control. Set-up: species or system Egg. The following applies: oryzias latipes, 264 h.
Data set [2] is described as follows: Toxicity against medaka eggs assessed as eggs failing to hatch after 11 days. Set-up: species or system Egg. The following applies: oryzias latipes, 264 h.
A short description of data set [3]: Toxicity against medaka fry after 96 hrs. In kind it is organism-based. As to conditions: oryzias latipes, in vivo; read-out: LD50.
The nature of data set [4]: Selectivity ratio of LD50 for medaka fry to ED50 for medaka eggs. As to conditions: oryzias latipes.
The target in data set [5] is Glycogen synthase kinase-3 beta (Homo sapiens) (UniProt P49841). In words: Inhibition of human recombinant GSK3-beta assessed as incorporation of [33P]gammaATP into G2S peptide at 25 uM.
Data set [6] relates to Plasmodium falciparum. As to the kind of experiment: Antimalarial activity after 72 hrs against chloroquine-sensitive Plasmodium falciparum D6 in erythrocytes by LDH reporter assay. In kind it is functional, organism-based. The following applies: D6, 72 h.
In data set [7] the test system is Staphylococcus aureus. As to the kind of experiment: Antibacterial activity against Staphylococcus aureus. In kind it is functional, organism-based.
The subject of data set [8] is SH-SY5Y. In words: Cytotoxicity against human SH-SY5Y cells at 5 uM. It is filed as cell-based.
The test system of data set [9] is Voltage-gated calcium channel. As to the kind of experiment: Blocking of calcium channel in human SH-SY5Y cells assessed as inhibition of KCL depolarization-induced cytosolic calcium increase at 1 uM. In kind it is cell-based.
The target in data set [10] is Glycogen synthase kinase-3 beta (Homo sapiens) (UniProt P49841). In words: Inhibition of GSK3-beta in human SH-SY5Y cells assessed as inhibition of tau phosphorylation at Ser396 at 5 uM after 24 hrs by ELISA sandwich method. In kind it is cell-based.
Data set [11] concerns Mycobacterium intracellulare. In words: Antibacterial activity against Mycobacterium intracellular by alamar blue assay. In kind it is functional, organism-based. A general note: The colour change of resazurin is a common sign of viable cells or microbes.
The subject of data set [12] is Cryptococcus neoformans. As to the kind of experiment: Antifungal activity against Cryptococcus neoformans. It is filed as functional, organism-based.
For data set [13], the system named is Plasmodium falciparum. As to the kind of experiment: Antimalarial activity after 72 hrs against chloroquine-resistant Plasmodium falciparum W2 in erythrocytes by LDH reporter assay. The following applies: W2, 72 h. In kind it is functional, organism-based. (A reporter such as luciferase makes a cellular process visible.)
Data set [14] relates to Leishmania donovani. In words: Antileishmanial activity against Leishmania donovani after 72 hrs by alamar blue assay. It is filed as functional, organism-based.
For data set [15], the system named is Vero. In words: Cytotoxicity against african green monkey Vero cells by neutral red assay. It is filed as cell-based. The following applies: chlorocebus sabaeus.
The subject of data set [16] is Mycobacterium tuberculosis. As to the kind of experiment: Antituberculosis activity against Mycobacterium tuberculosis H37Rv after 24 hrs by alamar blue assay. It is filed as functional.
The target of data set [17] is Beta-secretase 1 (Homo sapiens) (UniProt P56817). In words: Inhibition of human recombinant BACE1 by FRET-based assay.
The test system of data set [18] is Human immunodeficiency virus 1. As to the kind of experiment: Antiviral activity against HIV1 3B assessed as reverse transcriptase activity by enzyme immunoassay. In kind it is functional, organism-based. As to conditions: Human immunodeficiency virus 1, 3B.
Data set [19] deals with Staphylococcus aureus. As to the kind of experiment: Antibacterial activity against methicillin-resistant Staphylococcus aureus. It is filed as functional, organism-based.
The target of data set [20] is T1, Acetylcholinesterase (Bos taurus) (UniProt P23795).
T1 sequence (whole entry): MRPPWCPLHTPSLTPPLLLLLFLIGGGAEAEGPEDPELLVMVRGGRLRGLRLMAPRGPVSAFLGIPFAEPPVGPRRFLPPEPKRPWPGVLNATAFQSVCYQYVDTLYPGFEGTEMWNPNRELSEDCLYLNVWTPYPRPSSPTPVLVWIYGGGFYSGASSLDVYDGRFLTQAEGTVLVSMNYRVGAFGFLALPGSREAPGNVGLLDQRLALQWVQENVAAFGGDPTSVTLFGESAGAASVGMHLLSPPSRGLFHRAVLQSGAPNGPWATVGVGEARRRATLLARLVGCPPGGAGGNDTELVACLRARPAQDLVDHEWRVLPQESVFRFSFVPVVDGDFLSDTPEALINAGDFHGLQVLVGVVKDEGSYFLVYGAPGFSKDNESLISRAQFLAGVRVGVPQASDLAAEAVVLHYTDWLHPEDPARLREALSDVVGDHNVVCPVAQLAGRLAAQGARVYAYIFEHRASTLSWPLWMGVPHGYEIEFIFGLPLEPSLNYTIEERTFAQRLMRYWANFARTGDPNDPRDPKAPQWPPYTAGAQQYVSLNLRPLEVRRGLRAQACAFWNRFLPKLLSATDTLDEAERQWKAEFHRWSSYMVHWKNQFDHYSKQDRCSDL
In words: Inhibition of bovine AChE.

The subject of data set [21] is Plasmodium falciparum. In words: Antimalarial activity after 72 hrs against chloroquine-resistant Plasmodium falciparum W2 in erythrocytes at […] by LDH reporter assay. It is filed as functional, organism-based.
In data set [22] the test system is Vero. In words: Cytotoxicity against african green monkey Vero cells at 4.76 ug/mL by neutral red assay. The following applies: chlorocebus sabaeus. In kind it is cell-based.
In data set [23] the test system is Leishmania donovani. As to the kind of experiment: Antileishmanial activity against Leishmania donovani at 40 ug/mL after 72 hrs by alamar blue assay. It is filed as functional, organism-based.
For data set [24], the system named is Plasmodium falciparum. In words: Antimalarial activity after 72 hrs against chloroquine-sensitive Plasmodium falciparum D6 in erythrocytes at […] by LDH reporter assay. It is filed as functional, organism-based.
Data set [25] deals with Mycobacterium tuberculosis. As to the kind of experiment: Antituberculosis activity against Mycobacterium tuberculosis H37Rv at 64 ug/mL after 24 hrs by alamar blue assay. It is filed as functional, organism-based.

Beta-secretase 1 (Homo sapiens), sequence (P56817 whole entry): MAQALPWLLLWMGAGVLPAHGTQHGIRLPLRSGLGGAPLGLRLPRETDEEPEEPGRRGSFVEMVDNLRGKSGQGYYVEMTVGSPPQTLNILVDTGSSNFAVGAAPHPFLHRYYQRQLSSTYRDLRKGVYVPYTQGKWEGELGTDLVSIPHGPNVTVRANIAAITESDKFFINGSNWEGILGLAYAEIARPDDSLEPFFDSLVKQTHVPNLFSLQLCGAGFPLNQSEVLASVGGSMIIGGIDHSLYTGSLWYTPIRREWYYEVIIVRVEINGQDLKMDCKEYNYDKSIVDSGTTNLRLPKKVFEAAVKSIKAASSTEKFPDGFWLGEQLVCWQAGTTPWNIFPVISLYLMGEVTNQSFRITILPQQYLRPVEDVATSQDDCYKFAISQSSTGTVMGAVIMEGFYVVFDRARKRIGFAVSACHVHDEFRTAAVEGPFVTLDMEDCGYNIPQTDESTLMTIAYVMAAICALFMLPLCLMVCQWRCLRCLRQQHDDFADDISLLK
Glycogen synthase kinase-3 beta (Homo sapiens), sequence (P49841 whole entry, looked up): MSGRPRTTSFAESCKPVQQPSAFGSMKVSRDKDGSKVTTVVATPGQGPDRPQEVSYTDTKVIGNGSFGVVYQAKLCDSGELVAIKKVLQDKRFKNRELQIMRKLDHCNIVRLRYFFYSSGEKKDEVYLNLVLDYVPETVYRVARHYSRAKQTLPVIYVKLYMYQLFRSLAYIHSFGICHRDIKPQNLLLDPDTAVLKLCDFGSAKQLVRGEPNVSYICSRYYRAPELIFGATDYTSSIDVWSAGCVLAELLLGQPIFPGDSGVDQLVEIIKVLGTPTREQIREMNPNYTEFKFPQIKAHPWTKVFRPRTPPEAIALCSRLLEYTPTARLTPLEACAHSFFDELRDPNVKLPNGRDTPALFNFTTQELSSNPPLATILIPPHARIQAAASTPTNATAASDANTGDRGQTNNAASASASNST

Regarding `CCN(CC)CCCC(C)Nc1ccnc2cc(Cl)ccc12` (stereo not given) [CHLOROQUINE], in [1], the Activity entry is recorded as “Not Active”.

For the compound `O[C@@H]1CCCN2CC[C@@H]1O[C@@]13CC[C@@H](OC[C@]45CN6CCCC/C=C\CC[C@](O)(C=C(c7nccc8c7[nH]c7ccccc78)[C@@H]4CC6)[C@H]25)[C@@H](O)CCN1[C@@H]1[C@]2(CN4CCCC/C=C\CC[C@]1(O)C=C(c1nccc5c1[nH]c1ccccc15)[C@@H]2CC4)C3` [NEO-KAULUAMINE], the ED50 in [2] came out at 2450 nM. Also, the LC50 at 96 h in data set [3] is 820 nM. In [4], the selectivity ratio amounted to 3. For the same compound, the inhibition in data set [5] amounted to 82%.

As to `Oc1cccc2c1[nH]c1c(C3=C[C@@]4(O)CC/C=C\CCCCN5CC[C@@H]3[C@]3(CC6/C=C\CCCCN6[C@H]34)C5)nccc12` (stereo not given in full), the IC50 in [6] is 0.006 µg/mL (≈ 0.0106 µM); in data set [7], 0.9 µg/mL (≈ 1.59 µM); in data set [11], 1 µg/mL (≈ 1.77 µM); in data set [12] it was 3 µg/mL (≈ 5.31 µM); in data set [13] it was 0.008 µg/mL (≈ 0.0142 µM); in data set [14], 6.2 µg/mL (≈ 11 µM). Besides, the IC50 in data set [15] stood at 1.1 µg/mL (≈ 1.95 µM); in data set [18], 0.59 µg/mL (≈ 1.04 µM); in data set [19] it was 4 µg/mL (≈ 7.08 µM). In addition, the Activity entry in data set [8] is given as “Non-toxic”. Moreover, in data set [9], the “inhibition (INH)” value came to 20%. In addition, the outcome in data set [10] was Active. For the same compound, it took 11 µg/mL (≈ 19.5 µM) to reach the 90% level in data set [14] (IC90). Moreover, it took 0.9 µg/mL (≈ 1.59 µM) to inhibit growth in data set [16] (MIC). Besides, the outcome in data set [17] and in data set [20] was inactive. Besides, the inhibition in data set [5] stood at 86.7%.

In the case of `O[C@]12C=C(c3nccc4c3[nH]c3ccccc34)[C@@H]3CCN(CCCC/C=C\CC1)C[C@@]31C[C@@H]3/C=C\CCCCN3[C@H]12` [MANZAMINE A], the IC50 was 0.0045 µg/mL (≈ 0.0082 µM) in [6]; 0.5 µg/mL (≈ 0.911 µM) in data set [7]; 0.35 µg/mL (≈ 0.638 µM) in data set [11]; 3 µg/mL (≈ 5.47 µM) in data set [12]; 0.008 µg/mL (≈ 0.0146 µM) in data set [13]; 0.9 µg/mL (≈ 1.64 µM) in data set [14]. For the same compound, the IC50 in data set [15] stood at 1.2 µg/mL (≈ 2.19 µM); in data set [18], 4.2 µg/mL (≈ 7.65 µM); in data set [19] it was 0.7 µg/mL (≈ 1.28 µM). Besides, the Activity result in data set [8] is “Non-toxic”. Further, in data set [9], the “inhibition (INH)” value was 20%. For the same compound, in [10], the result was Active. The ED50 in data set [2] was determined as 170 nM. Besides, the LC50 at 96 h in [3] amounted to 74 nM. In data set [14], this compound gave an IC90 of 1.8 µg/mL (≈ 3.28 µM). The compound also had an MIC in [16] of 1.5 µg/mL (≈ 2.73 µM). In addition, in [4], the selectivity ratio stood at 2.3. Further, the outcome in data set [17] and in data set [20] was inactive. In addition, the inhibition in data set [5] came to 73.2%.

As to `O=C1CCCN2[C@@H]3[C@@]45CN6CCCC/C=C\CC[C@@]3(C=C(c3nccc7c3[nH]c3ccccc37)[C@@H]4CC6)O[C@]2(CC1)C5`, the result in [7], in data set [21], in [11], in data set [12], in data set [23] and in [17] was inactive. The outcome in data set [24], in data set [19] and in data set [20] was inactive. Besides, in data set [22], the Activity result was “Non-toxic”. The IC50 in [18] stood at 17.5 µg/mL (≈ 31.1 µM).

`C1=C(c2nccc3c2[nH]c2ccccc23)[C@@H]2CCN3CCCC/C=C\CC[C@]14O[C@@]15/C=C\CCCCN1[C@@H]4[C@]2(C3)C5` [12,34-OXAMANZAMINE A]: the half-inhibitory concentration (IC50) in [6] stood at 4.76 µg/mL (≈ 8.71 µM); in data set [14] it was 14 µg/mL (≈ 25.6 µM). Further, the outcome in data set [7], in data set [25], in data set [21], in data set [11], in data set [12] and in data set [17] was inactive. Further, the outcome in [19] and in data set [20] was inactive. In [14], this compound had an IC90 of 40 µg/mL (≈ 73.2 µM). Further, in data set [22], the Activity result is reported as “Non-toxic”.
